Measurements: US4277477A, “Method of using 1,2-benzisothiazoles” (BASF Aktiengesellschaft, priority 1977, dated 1981)
Counter-ions that a name gives are not always drawn.

Columns and labels:
in vivo = assay type: in vivo, rats (Sprague Dawley); conditions: rat, in vivo; rats, oral; read-out: Maximum effect, Dose (maximum nontoxic dose)
Method: (§1) The anti-arrhythmic activity of the compounds is determined by orally administering these to rats (Sprague Dawley, weight: 180-240 g) 45 minutes before the start of narcosis (100 mg/kg of thiobutabarbital, administered intraperitoneally).
(§2) The arrhythmogenous substance used was aconitine, administered by intravenous infusion (at the rate of 0.005 mg/kg. minute) 60 minutes after administration of the benzisothiazole derivative.
(§3) for a quantitative evaluation of the linear relation between the logarithm of the dose (mg/kg) of the test substances and the relative increase in the duration of infusion of aconitine (Δ%), the dose which increases the duration of infusion by 50% (ED 50%) was determined.

[1] = test system: Aconitineinduced arrhythmia in rats; test: in vivo; assay type: in vivo, rats (Sprague Dawley); conditions: oral
Method: as §1, §2, §3

female Swiss mice = conditions: LD 50 mice i.p. / ED 50% rats oral
Method: The acute toxicity was determined on groups of 10 or 20 female Swiss mice weighing 20-26 g, using intraperitoneal administration.

| Compound | MTD (in vivo) | antiarrhythmic activity, times greater than that of procainamide [1] | therapeutic range (LD 50/ED 50%), times greater than for procainamide (female Swiss mice) | Antiarrhythmic effect, R.E. (relative effect; procainamide = 1.00) ([1]; relative to procainamide) |
| --- | --- | --- | --- | --- |
| c1ccc2c(-c3ccc(C4=NCCCN4)cc3)nsc2c1 [Example 2, 3-[4'-(Tetrahydropyrimidin-2"-yl)-phenyl]-1,2-benzisothiazole hydrochloride] | 215 mg/kg | about 5 times | 4 times | – |
| CC1CN=C(c2ccc(-c3nsc4ccccc34)cc2)N1 (centres unmarked) [Example 3, 3-[4'-(Methylimidazolin-2"-yl)-phenyl]-1,2-benzisothiazole hydrochloride] | 215 mg/kg | about 5 times | 2.8 times | 4.80 |
| CCN(CC)CCNC(=O)c1ccc(N)cc1 [Procainamide, procainamide, reference compound] | 681 mg/kg | – | – | – |
